# Test results published in US12559506B2, “Indazole based compounds and associated methods of use” (Arvinas Operations, Inc., priority 2021, dated 2026).
# Like-named read-outs stand apart in the source and are kept apart here.
# Biological target: T1, LRRK2 (endogenous, HiBit tagged) (Homo sapiens, UniProt Q5S007)
# T1 construct: endogenous in cells; host or cells: HEK293 cells with HiBit knock-in at the endogenous LRRK2 locus, stably expressing firefly luciferase
# Assay: Endogenous LRRK2 degradation assay, endogenous gene C-terminally HiBit-tagged in HEK293 cells (Nano-Glo Dual Luciferase)
# Format: cell-based
# Method in brief: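 LRRK2-HiBit quantified via Nano-Glo Dual Luciferase in HEK293 knock-in cells co-expressing firefly luciferase, after 24 h exposure to compound (1 μM final top, 1:3, 11 points). Values normalised to DMSO median per plate and curve-fitted; Alamar Blue viability run alongside.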
# [1] = endogenous HiBit-tagged LRRK2, HEK293 cells, 24 hours, read-out: **Endogenous WT Dmax (%)
# [2] = endogenous HiBit-tagged LRRK2, HEK293 cells, 24 hours, read-out: *Endogenous WT DC50
# [3] = endogenous HiBit-tagged LRRK2 in HEK293 cells, 24 hours treatment, read-out: **Endogenous WT Dmax (%)
# [4] = endogenous HiBit-tagged LRRK2 in HEK293 cells, 24 hours treatment, read-out: *Endogenous WT DC50
# [5] = endogenous HiBit-tagged LRRK2 in HEK293 cells, 24 hours treatment, read-out: Endogenous WT DC50
# [6] = endogenous HiBit-tagged LRRK2 in HEK293 cells, 24 hours treatment, read-out: Endogenous WT Dmax
# T1 sequence (Q5S007 whole entry): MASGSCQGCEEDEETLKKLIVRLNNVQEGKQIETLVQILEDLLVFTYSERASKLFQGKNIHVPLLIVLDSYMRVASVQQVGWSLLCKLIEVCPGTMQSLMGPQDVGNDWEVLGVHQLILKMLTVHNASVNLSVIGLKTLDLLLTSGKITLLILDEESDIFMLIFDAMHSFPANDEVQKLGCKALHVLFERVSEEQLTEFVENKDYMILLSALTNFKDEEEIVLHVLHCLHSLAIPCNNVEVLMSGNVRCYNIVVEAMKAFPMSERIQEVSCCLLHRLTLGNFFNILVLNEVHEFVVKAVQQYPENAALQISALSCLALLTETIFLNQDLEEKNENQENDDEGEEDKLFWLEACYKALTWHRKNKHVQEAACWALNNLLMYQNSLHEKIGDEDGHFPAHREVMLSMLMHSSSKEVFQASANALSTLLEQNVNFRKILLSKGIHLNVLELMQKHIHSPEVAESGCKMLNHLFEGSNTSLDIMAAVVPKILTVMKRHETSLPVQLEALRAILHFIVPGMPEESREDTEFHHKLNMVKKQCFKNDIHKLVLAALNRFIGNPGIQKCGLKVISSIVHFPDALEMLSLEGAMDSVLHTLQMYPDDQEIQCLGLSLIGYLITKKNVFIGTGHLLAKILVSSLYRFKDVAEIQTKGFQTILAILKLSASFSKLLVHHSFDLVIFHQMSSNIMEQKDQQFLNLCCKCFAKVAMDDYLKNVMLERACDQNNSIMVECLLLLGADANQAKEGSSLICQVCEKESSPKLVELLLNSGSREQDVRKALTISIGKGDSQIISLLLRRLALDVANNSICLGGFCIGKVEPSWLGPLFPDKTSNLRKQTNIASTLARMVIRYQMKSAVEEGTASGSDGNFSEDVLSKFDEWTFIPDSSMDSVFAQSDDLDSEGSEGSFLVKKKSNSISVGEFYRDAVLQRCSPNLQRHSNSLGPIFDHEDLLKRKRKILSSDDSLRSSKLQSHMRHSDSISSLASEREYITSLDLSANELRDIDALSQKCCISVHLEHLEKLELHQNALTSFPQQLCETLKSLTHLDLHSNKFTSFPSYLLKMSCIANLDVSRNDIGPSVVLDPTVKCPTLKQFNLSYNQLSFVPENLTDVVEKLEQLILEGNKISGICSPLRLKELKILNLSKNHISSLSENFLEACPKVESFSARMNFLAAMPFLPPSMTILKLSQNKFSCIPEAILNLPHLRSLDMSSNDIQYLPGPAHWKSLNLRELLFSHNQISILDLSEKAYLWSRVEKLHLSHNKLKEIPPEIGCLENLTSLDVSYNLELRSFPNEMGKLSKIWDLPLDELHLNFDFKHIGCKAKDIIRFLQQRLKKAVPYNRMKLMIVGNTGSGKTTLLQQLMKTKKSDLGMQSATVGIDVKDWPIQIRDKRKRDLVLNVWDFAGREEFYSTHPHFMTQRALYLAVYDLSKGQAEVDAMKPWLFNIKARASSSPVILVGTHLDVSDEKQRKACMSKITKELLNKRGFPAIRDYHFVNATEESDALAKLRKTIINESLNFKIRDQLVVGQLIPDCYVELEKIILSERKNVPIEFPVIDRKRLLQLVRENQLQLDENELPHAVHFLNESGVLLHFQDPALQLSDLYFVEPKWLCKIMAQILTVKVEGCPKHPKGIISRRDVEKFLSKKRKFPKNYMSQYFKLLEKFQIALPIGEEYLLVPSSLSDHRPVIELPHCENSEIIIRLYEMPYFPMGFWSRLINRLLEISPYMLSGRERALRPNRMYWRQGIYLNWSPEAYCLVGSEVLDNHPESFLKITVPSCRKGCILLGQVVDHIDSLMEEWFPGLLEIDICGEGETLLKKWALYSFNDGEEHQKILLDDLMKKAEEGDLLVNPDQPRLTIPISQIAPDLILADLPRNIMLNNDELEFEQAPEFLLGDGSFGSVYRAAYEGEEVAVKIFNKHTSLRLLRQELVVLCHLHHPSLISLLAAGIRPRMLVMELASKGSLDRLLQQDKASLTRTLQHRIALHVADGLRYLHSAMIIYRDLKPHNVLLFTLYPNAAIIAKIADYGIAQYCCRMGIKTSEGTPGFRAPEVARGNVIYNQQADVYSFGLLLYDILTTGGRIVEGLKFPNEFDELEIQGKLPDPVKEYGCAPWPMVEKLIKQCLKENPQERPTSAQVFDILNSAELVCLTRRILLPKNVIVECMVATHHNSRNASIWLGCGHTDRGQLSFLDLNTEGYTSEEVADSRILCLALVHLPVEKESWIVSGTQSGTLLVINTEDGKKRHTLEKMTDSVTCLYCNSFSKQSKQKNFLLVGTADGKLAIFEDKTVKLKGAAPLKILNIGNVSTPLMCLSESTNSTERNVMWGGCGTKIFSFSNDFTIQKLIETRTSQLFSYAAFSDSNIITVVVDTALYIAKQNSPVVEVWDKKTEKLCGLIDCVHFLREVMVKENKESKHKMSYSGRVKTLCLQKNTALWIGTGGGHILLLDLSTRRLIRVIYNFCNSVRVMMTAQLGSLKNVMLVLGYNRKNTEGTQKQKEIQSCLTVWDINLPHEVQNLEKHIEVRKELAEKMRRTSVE
Structure (SMILES),Dmax [3] [%],DC50 [4] [nM],DC50 [5] [nM],Dmax [6] [%],also measured
"CC1(Oc2cc3c(-c4cc(N5CCN(CC6(F)CCN(CC7CCN(c8ccc9c(c8F)CN(C8CCC(=O)NC8=O)C9=O)CC7)CC6)CC5)ncn4)n[nH]c3cc2F)CC1 (stereo not shown) [Compound 189, 3-[4-fluoro-5-[4-[[4-fluoro-4-[[4-[6-[6-fluoro-5-(1-methylcyclopropoxy)-1H-indazol-3-yl]pyrimidin-4-yl]piperazin-1-yl]methyl]-1-piperidyl]methyl]-1-piperidyl]-1-oxo-isoindolin-2-yl]piperidine-2,6-dione]",–,–,–,–,Dmax [1]: ≥ 70%; DC50 [2]: < 10 nM
"COc1c(N2CCN(C[C@@H]3CO[C@@H](CN4CCN(c5cc(-c6[nH]nc7ccc(OC8(C)CC8)cc67)ncn5)CC4)CO3)CC2)ccc2c1CN(C1CCC(=O)NC1=O)C2=O (stereo partly shown) [Compound 291, 3-[4-methoxy-5-(4-{[(2r,5s)-5-[(4-{6-[5-(1-methylcyclopropoxy)-2H-indazol-3-yl]pyrimidin-4-yl}piperazin-1-yl)methyl]-1,4-dioxan-2-yl]methyl}piperazin-1-yl)-1-oxo-2,3-dihydro-1H-isoindol-2-yl]piperidine-2,6-dione]",≥ 70,< 10,–,–,–
"CC1(Oc2ccc3[nH]nc(-c4cnnc(N5CCC(O[C@H]6CC[C@H](CN7CCN(c8ccc9c(c8F)CN(C8CCC(=O)NC8=O)C9=O)CC7)CC6)CC5)c4)c3c2)CC1 (stereo partly shown) [Compound 377, 3-[4-fluoro-1-oxo-5-(4-{[(1r,4r)-4-[(1-{5-[5-(1-methylcyclopropoxy)-1H-indazol-3-yl]pyridazin-3-yl}piperidin-4-yl)oxy]cyclohexyl]methyl}piperazin-1-yl)-2,3-dihydro-1H-isoindol-2-yl]piperidine-2,6-dione]",–,–,< 10,50 to 70,–
"COc1c(N2CCC(CN3CCN(CC4CCN(c5cc(-c6n[nH]c7ccc(OC8(C)CC8)cc67)ncn5)CC4)CC3)CC2)ccc2c1CN(C1CCC(=O)NC1=O)C2=O (stereo not shown) [Compound 211, 3-[4-methoxy-5-[4-[[4-[[1-[6-[5-(1-methylcyclopropoxy)-1H-indazol-3-yl]pyrimidin-4-yl]-4-piperidyl]methyl]piperazin-1-yl]methyl]-1-piperidyl]-1-oxo-isoindolin-2-yl]piperidine-2,6-dione]",–,–,< 10,≥ 70,–
"C[C@H]1CN(CC2CCN(c3cc(-c4n[nH]c5ccc(OC6(C)CC6)cc45)ncn3)CC2)CCN1CC1CCN(c2ccc3c(c2F)CN(C2CCC(=O)NC2=O)C3=O)CC1 (stereo partly drawn) [Compound 222, 3-[4-fluoro-5-(4-{[(2S)-2-methyl-4-[(1-{6-[5-(1-methylcyclopropoxy)-1H-indazol-3-yl]pyrimidin-4-yl}piperidin-4-yl)methyl]piperazin-1-yl]methyl}piperidin-1-yl)-1-oxo-2,3-dihydro-1H-isoindol-2-yl]piperidine-2,6-dione]",–,–,< 10,≥ 70,–
"CC1(Oc2cc3c(-c4cc(N5CCN(C[C@H]6CC[C@H](CN7CCN(c8ccc9c(c8F)CN(C8CCC(=O)NC8=O)C9=O)CC7)CC6)CC5)ncn4)n[nH]c3cn2)CC1 (stereo partly shown) [Compound 267, 3-[4-fluoro-1-oxo-5-(4-{[(1r,4r)-4-[(4-{6-[5-(1-methylcyclopropoxy)-1H-pyrazolo[3,4-c]pyridin-3-yl]pyrimidin-4-yl}piperazin-1-yl)methyl]cyclohexyl]methyl}piperazin-1-yl)-2,3-dihydro-1H-isoindol-2-yl]piperidine-2,6-dione]",≥ 70,< 10,–,–,–
"C[C@H]1CN(C[C@H]2CC[C@H](OC3CCN(c4cc(-c5n[nH]c6ccc(OC7(C)CC7)cc56)ncn4)CC3)CC2)CCN1c1ccc2c(c1F)CN(C1CCC(=O)NC1=O)C2=O (stereo partly drawn) [Compound 353, 3-{4-fluoro-5-[(2S)-2-methyl-4-{[(1r,4r)-4-[(1-{6-[5-(1-methylcyclopropoxy)-1H-indazol-3-yl]pyrimidin-4-yl}piperidin-4-yl)oxy]cyclohexyl]methyl}piperazin-1-yl]-1-oxo-2,3-dihydro-1H-isoindol-2-yl}piperidine-2,6-dione]",50 to 70,< 10,–,–,–
"CC1(Oc2ccc3[nH]nc(-c4cc(N5CCC(O[C@H]6CCN(CC7CCN(c8ccc9c(c8F)CN(C8CCC(=O)NC8=O)C9=O)CC7)C(C)(C)C6)CC5)ncn4)c3c2)CC1 (stereo partly drawn) [Compound 308, 3-(5-(4-(((S)-2,2-dimethyl-4-((1-(6-(5-(1-methylcyclopropoxy)-1H-indazol-3-yl)pyrimidin-4-yl)piperidin-4-yl)oxy)piperidin-1-yl)methyl)piperidin-1-yl)-4-fluoro-1-oxoisoindolin-2-yl)piperidine-2,6-dione]",50 to 70,< 10,–,–,–
"C[C@H]1CN(c2cc(-c3n[nH]c4ccc(OC5(C)CC5)cc34)ncn2)CCN1CC1(F)CCN(CC2CCN(c3ccc4c(c3F)CN(C3CCC(=O)NC3=O)C4=O)CC2)CC1 (stereo partly drawn) [Compound 187, 3-[4-fluoro-5-[4-[[4-fluoro-4-[[(2S)-2-methyl-4-[6-[5-(1-methylcyclopropoxy)-1H-indazol-3-yl]pyrimidin-4-yl]piperazin-1-yl]methyl]-1-piperidyl]methyl]-1-piperidyl]-1-oxo-isoindolin-2-yl]piperidine-2,6-dione]",–,–,–,–,Dmax [1]: ≥ 70%; DC50 [2]: < 10 nM
"CC1(Oc2ccc3n[nH]c(-c4cc(N5CC6(CCN([C@H]7C[C@H](OC8CCN(c9ccc%10c(c9F)CN(C9CCC(=O)NC9=O)C%10=O)CC8)C7)CC6)C5)ncn4)c3c2)CC1 (stereo partly shown) [Compound 304, 3-(4-fluoro-1-oxo-5-{4-[(1r,3r)-3-(2-{6-[5-(1-methylcyclopropoxy)-2H-indazol-3-yl]pyrimidin-4-yl}-2,7-diazaspiro[3.5]nonan-7-yl)cyclobutoxy]piperidin-1-yl}-2,3-dihydro-1H-isoindol-2-yl)piperidine-2,6-dione]",50 to 70,< 10,–,–,–
"CC1(Oc2ccc3[nH]nc(-c4cc(N5CCC(CCN6CCC7(CN(c8ccc9c(c8F)CN(C8CCC(=O)NC8=O)C9=O)C7)C(F)(F)C6)CC5)ncn4)c3c2)CC1 (stereo not shown) [Compound 376, 3-(5-{5,5-difluoro-7-[2-(1-{6-[5-(1-methylcyclopropoxy)-1H-indazol-3-yl]pyrimidin-4-yl}piperidin-4-yl)ethyl]-2,7-diazaspiro[3.5]nonan-2-yl}-4-fluoro-1-oxo-2,3-dihydro-1H-isoindol-2-yl)piperidine-2,6-dione]",–,–,< 10,50 to 70,–
"C[C@H]1CN(CC2CCN(c3ccc4c(c3F)CN(C3CCC(=O)NC3=O)C4=O)CC2)CCN1CC1CCN(c2cc(-c3n[nH]c4cnc(OC5(C)CC5)cc34)ncn2)CC1 (stereo partly drawn) [Compound 266, 3-[4-fluoro-5-(4-{[(3S)-3-methyl-4-[(1-{6-[5-(1-methylcyclopropoxy)-1H-pyrazolo[3,4-c]pyridin-3-yl]pyrimidin-4-yl}piperidin-4-yl)methyl]piperazin-1-yl]methyl}piperidin-1-yl)-1-oxo-2,3-dihydro-1H-isoindol-2-yl]piperidine-2,6-dione]",≥ 70,< 10,–,–,–
"CC1(Oc2ccc3[nH]nc(-c4cc(N5CCN(C[C@H]6CC[C@H](OC7CCN(c8ccc9c(c8F)CN(C8CCC(=O)NC8=O)C9=O)CC7)CC6)CC5(C)C)ncn4)c3c2)CC1 (stereo partly shown) [Compound 383, 3-(5-(4-(((1r,4r)-4-((3,3-dimethyl-4-(6-(5-(1-methylcyclopropoxy)-1H-indazol-3-yl)pyrimidin-4-yl)piperazin-1-yl)methyl)cyclohexyl)oxy)piperidin-1-yl)-4-fluoro-1-oxoisoindolin-2-yl)piperidine-2,6-dione]",–,–,50 to 100,< 50,–
"CC1(Oc2ccc3[nH]nc(-c4cc(N5CCC(CN6CCC7(CN(c8ccc9c(c8F)CN(C8CCC(=O)NC8=O)C9=O)C7)C(F)(F)C6)CC5)ncn4)c3c2)CC1 (stereo not shown) [Compound 350, 3-(5-{5,5-difluoro-7-[(1-{6-[5-(1-methylcyclopropoxy)-1H-indazol-3-yl]pyrimidin-4-yl}piperidin-4-yl)methyl]-2,7-diazaspiro[3.5]nonan-2-yl}-4-fluoro-1-oxo-2,3-dihydro-1H-isoindol-2-yl)piperidine-2,6-dione]",50 to 70,< 10,–,–,–
"CC1(Oc2cc3c(-c4cc(N5CCC(O[C@H]6CC[C@H](CN7CCN(c8ccc9c(c8F)CN(C8CCC(=O)NC8=O)C9=O)CC7)CC6)CC5)ncn4)n[nH]c3cc2F)CC1 (stereo partly shown) [Compound 259, 3-[4-fluoro-1-oxo-5-(4-{[(1r,4r)-4-[(1-{6-[6-fluoro-5-(1-methylcyclopropoxy)-1H-indazol-3-yl]pyrimidin-4-yl}piperidin-4-yl)oxy]cyclohexyl]methyl}piperazin-1-yl)-2,3-dihydro-1H-isoindol-2-yl]piperidine-2,6-dione]",50 to 70,< 10,–,–,–
"C[C@H]1CN(CC2CCN(c3ccc4c(c3F)CN(C3CCC(=O)NC3=O)C4=O)CC2)CCN1CC1CCN(c2cc(-c3n[nH]c4ccc(OC5(C)CC5)cc34)ncn2)CC1 (stereo partly drawn) [Compound 221, 3-[4-fluoro-5-(4-{[(3S)-3-methyl-4-[(1-{6-[5-(1-methylcyclopropoxy)-1H-indazol-3-yl]pyrimidin-4-yl}piperidin-4-yl)methyl]piperazin-1-yl]methyl}piperidin-1-yl)-1-oxo-2,3-dihydro-1H-isoindol-2-yl]piperidine-2,6-dione]",–,–,< 10,50 to 70,–
"CC1(Oc2ccc3n[nH]c(-c4cc(N5CCC(O[C@H]6C[C@H](N7CCC(c8ccc9c(c8F)CN(C8CCC(=O)NC8=O)C9=O)CC7)C6)CC5)ncn4)c3c2)CC1 (stereo partly shown) [Compound 290, 3-(4-fluoro-1-oxo-5-{1-[(1r,3r)-3-[(1-{6-[5-(1-methylcyclopropoxy)-2H-indazol-3-yl]pyrimidin-4-yl}piperidin-4-yl)oxy]cyclobutyl]piperidin-4-yl}-2,3-dihydro-1H-isoindol-2-yl)piperidine-2,6-dione]",≥ 70,< 10,–,–,–
